{
  "source": "paper PMC11874007",
  "about": "“Switching Roles—Exploring Concentration-Dependent Agonistic versus Antagonistic Behavior of Integrin Ligands” (Journal of Medicinal Chemistry, 2025)",
  "assay_type_in_all_cases": "cell-based",
  "key": {"[1]": {"test_system": "M21 cells", "assay": "Cell adhesion in the presence of ligand, M21 cells", "conditions": "1 μM", "experimental": "(§1) Figure 10 (A) Effect of integrin ligands on cancer cell migration. […] Microscopical measurements of wound gaps were taken directly after setting the wound scratch and then after 9, 24, 48, and 72 h, respectively. Wound scratch assays were repeated at least three times. The extent of wound gap closure [%]/cell coverage was calculated by a python script utilizing Canny’s Edge Detection algorithm as described under Materials and summarized in the corresponding histograms (see also Scheme S5 in the Supporting Information). (B) Adhesion of M21, OV-MZ-6, and HN cells in the presence of the respective integrin targeting ligand at low (1 nM) and high (1 μM) concentrations. […] Depicted are typical microscopical images of the respective cell monolayers."}, "[2]": {"test_system": "OV-MZ-6 cells", "assay": "Cell adhesion in the presence of ligand, OV-MZ-6 cells", "conditions": "1 μM, 48 h", "experimental": "as §1"}, "[3]": {"test_system": "FAK, p-FAK, p44/42erk-1/2 in αvβ6+ HN cells", "assay": "Western blot of FAK and p44/42erk-1/2 expression and activation, HN cells", "experimental": "Since agonistic ligand performance requires integrin activation and signaling, by Western blot analysis, we studied whether the different ligands alter the expression levels and activation states of FAK and p44/42^(erk-1/2). For this, the respective target integrin-expressing tumor cell types were incubated with the corresponding subtype-selective ligand at a concentration of 1 μM for 24 h (Figure 8). […] Signal intensities of FAK and p44/42^(erk-1/2) expression and activation (p-FAK and p-p44/42^(erk-1/2)) on Western blots were evaluated by densitometry. Data are depicted as GAPDH-normalized fluorescence signal intensities as n-fold, by setting values obtained for the respective untreated cells to “1”. […] MAPK p44/42^(erk-1/2) expression was approximately 2.2-fold augmented, p44/42^(erk-1/2) by approximately 2.5-fold. It also raised activation of p-FAK and p-p44/42^(erk-1/2) by approximately 2.2-fold and 3.1-fold, respectively, in α5β1+ OV-MZ-6 cells. […] Additionally, it raised FAK (approximately 1.7-fold) and p-p44/42^(erk-1/2) (approximately 2.4-fold) in α5β1+ OV-MZ-6 cells.\nFigure 8 Effects of ligands on cellular expression and activation of integrin-related signaling molecules FAK and p44/42^(erk-1/2). […] Signal intensities for FAK and p-FAK, respectively, were evaluated by use of the Bio-Rad Imager Gel Doc XR+ and a ChemiDoc XRS+ Systems and the software Image Lab. Shown are typical representative Western blot images and the corresponding histograms depicting GAPDH-normalized signal intensities as n-fold by setting the values obtained for untreated cells to “1” (drawn as black line). For each cell line, cutouts of identical gels are depicted.\nIn order to capture early and transient changes in signaling activation following ligand treatment, we next reduced the observation periods to 5, 30, or 60 min and assessed FAK expression and activation. […] Depicted are typical Western blot images and the corresponding densitometrical evaluations of GAPDH-normalized signal intensities as n-fold, by setting that of the respective untreated cell type to “1” (Figure 9). […]"}, "[4]": {"test_system": "αvβ6+ HN cells", "assay": "Wound scratch cell migration assay, HN cells", "conditions": "at either concentration (1 nM, 1 μM)", "experimental": "As a biological readout for integrin signaling, we analyzed ligand effects on cell adhesion and migration by wound scratch assays (Figure 10A,B). […] Microscopical images were taken directly after wounding the cell monolayers and then after 9, 24, 48, and 72 h, respectively.\nFigure 10 (A) Effect of integrin ligands on cancer cell migration. […] Microscopical measurements of wound gaps were taken directly after setting the wound scratch and then after 9, 24, 48, and 72 h, respectively. Wound scratch assays were repeated at least three times. The extent of wound gap closure [%]/cell coverage was calculated by a python script utilizing Canny’s Edge Detection algorithm as described under Materials and summarized in the corresponding histograms (see also Scheme S5 in the Supporting Information). (B) Adhesion of M21, OV-MZ-6, and HN cells in the presence of the respective integrin targeting ligand at low (1 nM) and high (1 μM) concentrations. […]\nThe assays were performed according to a modified protocol as previously published.[94] […] The smoothened images were then filtered by a Sobel kernel[98] and the magnitude and direction of the intensity gradient of the images calculated. […] The resulting images were then segmented and binarized by use of a grid filter and analyzed with respect to cell-covered area relative to the start image of each series."}, "[5]": {"test_system": "HN cells (αvβ6+)", "assay": "Time-dependent cellular uptake of Cy5.5-labeled ligands, HN cells", "conditions": "Cy5.5-labeled ligands, 1 μM", "from_the_text": "For intracellular drug delivery, integrin ligands designed as drug-conjugated vehicles have to be easily and selectively internalized by tumor cells (over)expressing the respective targeted integrin subtype. […] It should be noted here that HN, OV-MZ-6, and RKO cells also express low αvβ3 expression levels.\nFigure 7 Cellular uptake of Cy5.5-labeled integrin ligands. […] Nuclei were costained with Hoechst 33342 (blue signal) and cell membranes with CellMask Green (green signal). Merge of stains (yellow signal) indicated colocalization of ligands at the cell membrane. Scale bar: 50 μm.\nMicrochamber cell culture slides were coated with fibronectin (2 μg/mL), followed by cell seeding at a density of 50,000 cells/well. After 24 h of cultivation, cells were treated with integrin ligands L1-Cy5.5 to L5-Cy5.5 (1 μM in 0.01% (w/v) CaCl2 and 0.1% (w/v) BSA in PBS; 250 μL/well) for 3, 30, 60, or 300 min at 37 °C. The cells were washed in PBS/0.01% (w/v) CaCl2 (6 × 800 μL) and the fluorescence signal intensity recorded using the LSM 700 microscope (Zeiss, Jena, Germany). CellMask Green Plasma Membrane Stain was used to stain the cell membrane; nuclei were stained with Hoechst 33342."}},
  "data": [
    {"molecule": "C#CCCC(=O)NCCCOc1ccc(C(=O)N[C@H](CC(=O)O)Cc2ccc(OCCCNc3cc(OC)ccn3)cc2)cc1", "note": "[L1, (S)-4-(4-(3-((4-Methoxypyridin-2-yl)amino)propoxy)phenyl)-3-(4-(3-(pent-4-ynamido)propoxy)benzamido)butanoic Acid]", "values": [
      {"measurement": "Effect on cell adhesion / attachment", "setting": "[1]", "result": "performed as inhibitors of cell attachment"}
    ]},
    {"molecule": "C#CCCC(=O)NCCCOc1cc(C)c(C(=O)N[C@@H](CNC(=O)CNC(=O)c2cccc(NC(=N)N)c2)C(=O)O)c(C)c1", "note": "[L5, (S)-2-(2,6-Dimethyl-4-(3-(pent-4-ynamido)propoxy)benzamido)-3-(2-(3-guanidinobenzamido)acetamido)propanoic Acid]", "values": [
      {"measurement": "Effect on cell adhesion / attachment", "setting": "[2]", "result": "performed as inhibitors of cell attachment"}
    ]},
    {"molecule": "c(FRGDLAFp(NMe)K) [L3]", "values": [
      {"measurement": "Modulation of signaling molecules (FAK, p44/42erk-1/2)", "setting": "[3]; 1 μM, 24 h, in either cell type", "result": "not effective in modulating signaling molecules"},
      {"measurement": "p-FAK, elevated levels within 30 min", "setting": "[3]; HN cells, 1 nM", "result": "approximately five"},
      {"measurement": "FAK expression versus untreated cells", "setting": "[3]; HN cells, both concentrations (1 nM, 1 μM), within 60 min", "result": "slight increase"},
      {"measurement": "Effect on cell migration", "setting": "[4]", "result": "neither antagonistic nor agonistic effects"},
      {"measurement": "Cellular uptake, comparison of αvβ6 ligands", "setting": "[5]", "result": "better cellular uptake than L4"}
    ]}
  ]
}
